System: mouse kidney
Assay: Folic acid nephropathy model, High dose vs Low dose FA (histology, qRT-PCR)
Settings: High dose group compared to Low dose group, day 14
Protocol: Mice were sacrificed at 1, 2, 3, 7 and 14 days following administration. […] All mice were sacrificed at 14 days.
Formalin fixed, paraffin embedded kidney sections were Masson Trichrome's stained and evaluated by a renal pathologist under a light microscope in blinded fashion relative to sample group. Percent area of fibrosis relative to the total section area was evaluated. Sirius red staining of the […] sections was performed at the Michigan State University Investigative Histopathology Laboratory.
Total RNA was extracted from frozen kidney tissue using TRIzol reagent (Invitrogen). Following RNA concentration measurement by NanoDrop spectrophotometer (Thermo Fischer Scientific), 1 μg RNA was used for cDNA preparation using QuantiTect Reverse Transcription Kit from Qiagen (Valencia, Calif.). qRT-PCR using QuantiFast SYBR Green PCR Kit (Qiagen) was performed in 384-well plates on an Applied Biosystems 7900HT Fast Real-Time PCR System instrument with the following temperature profile: 3 min enzyme activation at 95° C. followed by 40 cycles of 95° C. for 10 s, and 55° C. for 30 s. Primer pairs used are listed in Supplementary Table 1. Gapdh was used as reference gene for normalization. The SDS 2.4 software (Applied Biosystems) was used to compute the threshold cycle (Cq) and the relative expression for an mRNA was assessed using the 2^−ΔCq method.

**Q.** How did the “candidate fibrosis markers mRNA levels” value turn out when `Nc1nc2ncc(CNc3ccc(C(=O)N[C@@H](CCC(=O)O)C(=O)O)cc3)nc2c(=O)[nH]1` [FA, folic acid] was run?
**A.** Nine out of ten candidate fibrosis markers showed significantly (p<0.05) higher mRNA levels

Source: US10119168B2, “Methods for the treatment of kidney fibrosis” (priority 2014, dated 2018)
